The text below walks through data of publication PMC6882468 (Journal of Enzyme Inhibition and Medicinal Chemistry, 2019).

As usually defined, the IC50 is the concentration that inhibits the measured activity by half.

Experiment [1] deals with T1, COX-1 (Ovis aries, UniProt P05979).
T1 construct: purchased BioVision, Inc
T1 sequence (P05979 25-600): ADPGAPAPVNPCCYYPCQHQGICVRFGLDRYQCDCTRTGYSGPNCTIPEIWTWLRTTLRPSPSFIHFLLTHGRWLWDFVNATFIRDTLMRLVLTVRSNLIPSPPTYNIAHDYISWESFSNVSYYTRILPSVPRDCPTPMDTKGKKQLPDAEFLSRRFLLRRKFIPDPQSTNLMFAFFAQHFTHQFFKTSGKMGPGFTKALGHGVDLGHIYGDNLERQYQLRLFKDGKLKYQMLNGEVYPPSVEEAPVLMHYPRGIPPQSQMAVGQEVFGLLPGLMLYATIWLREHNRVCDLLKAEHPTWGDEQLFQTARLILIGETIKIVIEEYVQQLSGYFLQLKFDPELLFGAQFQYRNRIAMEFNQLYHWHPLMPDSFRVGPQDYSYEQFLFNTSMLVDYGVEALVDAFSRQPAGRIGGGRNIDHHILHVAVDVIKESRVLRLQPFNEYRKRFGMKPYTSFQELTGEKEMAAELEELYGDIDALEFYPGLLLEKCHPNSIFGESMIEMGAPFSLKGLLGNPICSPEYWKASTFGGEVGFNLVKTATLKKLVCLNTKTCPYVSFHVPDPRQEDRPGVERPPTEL
As to the kind of experiment: COX-1 inhibition assay in vitro (COX Inhibitor Screening Kit, fluorometric). It counts as biochemical. The method, then:
Simply, different concentrations of the test compound solution were added to the mixed solution containing COX-1/COX-2 enzyme (10 µL) and Assay Buffer (960 µL, 0.1 M Tris-HCl pH 8.0 containing 5 µM EDTA and 2 µM phenol). […] The IC50 values were calculated as described above.

Experiment [2] concerns JNK phosphorylation in RAW264.7 cells. Nature of the experiment: Western blot of LPS-induced JNK phosphorylation. It counts as cell-based, Murine. To be noted: RAW264.7, 5, 10, 20 μM, LPS 200 ng/mL. The procedure:
The cell in 96-well plates were treated as described above and then stimulated with LPS (200 ng/mL) for 24 h. The cells were harvested and lysed in an extraction lysis buffer (Beyotime Biotechnology, Shanghai, China) containing protease inhibitors. The protein concentration was determined using a BCA protein assay kit (Thermo Scientific, 23227). The whole cell lysates were separated by 10% sodium dodecyl sulphate-polyacrylamide gel electrophoresis and transferred to a nitrocellulose membrane. Each membrane was incubated with Tris-buffered saline (pH 7.6, containing 0.05% Tween-20 and 5% non-fat milk). The nitrocellulose membrane was incubated with the primary antibody against p-JNK1/2, JNK1/2, p-p38, p38, p-ERK1/2, ERK1/2, IκBa, NF-κB p65, COX-2, iNOS or β-Actin (Abcam, Cambridge, UK). Immunoreactive bands were detected by incubating with horseradish peroxidase-conjugated secondary antibodies, and visualised using enhanced chemiluminescence reagents (Bio-Rad, Hercules, CA).
Figure 7. Compound 6n inhibited LPS-induced MAPK-signalling activation in RAW264.7 cells. RAW264.7 cells were co-incubated with 6n (5, 10, 20 μM) and LPS (200 ng/mL) for 30 min. The levels of p38, JNK, ERK1/2 and their phosphorylated forms were analysed using western blot.
In general terms: A western blot detects proteins with antibodies after separation by electrophoresis.

Experiment [3] has as its target p38α MAPK (Homo sapiens, UniProt Q16539). As to the kind of experiment: p38α MAPK inhibition assay in vitro. It counts as biochemical. To be noted: triplicate, read-out: IC50 p38p. The method, then: In brief, after mixing the enzyme reagent with the sample, a reaction mixture containing 200 µM biotin-peptide substrate and 600 µM ATP (+100 µCi/mL γ-^32 P-ATP) was added to initiate the reaction. […] Part of the reaction solution was transferred to the well of a streptavidin-coated flash plate, washed in PBS containing 0.01% Tween and sealed. The average value of counts per minute for each group and the IC50 value was calculated.
The average fluorescence values of each well were calculated and recorded as RFU (Relative Fluorescence Unit) blank control (RFU blank), RFU 100% enzyme activity control (RFU enzyme), RFU positive drug control (RFU drug) and RFU test compound (RFU compound). The inhibition rate is calculated according to the following formula. Inhibition rate (%)= (RFU (enzyme) – RFU (compound/drug) […]) /(RFU (enzyme) – RFU (blank)) * 100%
The IC50 value of the test compound was calculated by the concentration-inhibition reaction curve and the assays were performed in triplicate.

The target in experiment [4] is T2, COX-2 (Homo sapiens, UniProt P35354).
T2 sequence (P35354 18-604): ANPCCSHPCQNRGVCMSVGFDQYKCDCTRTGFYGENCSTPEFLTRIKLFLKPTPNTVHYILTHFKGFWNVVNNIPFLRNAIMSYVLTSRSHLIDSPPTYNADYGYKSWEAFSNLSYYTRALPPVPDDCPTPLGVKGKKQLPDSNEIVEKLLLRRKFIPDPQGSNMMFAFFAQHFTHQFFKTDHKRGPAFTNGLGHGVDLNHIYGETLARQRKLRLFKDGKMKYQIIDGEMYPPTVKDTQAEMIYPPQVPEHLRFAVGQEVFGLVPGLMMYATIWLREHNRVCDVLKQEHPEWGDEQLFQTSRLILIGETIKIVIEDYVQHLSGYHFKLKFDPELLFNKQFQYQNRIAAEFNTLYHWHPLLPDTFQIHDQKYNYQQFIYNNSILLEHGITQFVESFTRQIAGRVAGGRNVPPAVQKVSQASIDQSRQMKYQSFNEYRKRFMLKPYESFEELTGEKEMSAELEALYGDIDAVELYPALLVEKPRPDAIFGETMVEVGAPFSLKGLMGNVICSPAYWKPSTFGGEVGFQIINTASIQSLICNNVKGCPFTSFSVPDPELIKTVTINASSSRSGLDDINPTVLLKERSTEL
As to the kind of experiment: COX-2 inhibition assay in vitro (COX Inhibitor Screening Kit, fluorometric).

Chain of p38α MAPK (Q16539 whole entry): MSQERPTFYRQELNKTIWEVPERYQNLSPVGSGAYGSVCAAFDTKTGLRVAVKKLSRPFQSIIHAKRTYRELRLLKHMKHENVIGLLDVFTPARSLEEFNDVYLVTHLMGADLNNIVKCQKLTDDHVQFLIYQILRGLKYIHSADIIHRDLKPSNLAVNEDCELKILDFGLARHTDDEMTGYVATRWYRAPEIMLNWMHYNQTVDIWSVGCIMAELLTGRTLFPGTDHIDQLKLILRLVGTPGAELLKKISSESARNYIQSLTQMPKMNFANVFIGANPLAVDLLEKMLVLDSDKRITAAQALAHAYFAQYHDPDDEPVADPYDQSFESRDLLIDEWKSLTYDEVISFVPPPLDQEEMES

Regarding `COc1ccccc1CN1CCN(C(=O)c2ccccc2C(C)=O)CC1` [Compound 6n, 1–(2-(4–(2-Methoxybenzyl)piperazine-1-carbonyl)phenyl)ethan-1-one], the IC50 in experiment [1] came out at 12.6 ± 0.79 µM; in experiment [3], 1.95 ± 0.13 µM; in experiment [4], 0.036 ± 0.004 µM. In addition, the “phosphorylation of JNK” value in experiment [2] is reported as “no obvious effect”. Moreover, the “SI (COX-1/COX-2)” value in experiment [4] (IC50 (COX-1)/IC50 (COX-2)) stood at 349.72.
